Where two headings read alike, the source gives them in different places.
Key:
Format in all cases: in vivo
[1] = system: PAPRH: common poppy (Papaver rhoeas); assay: Post-emergent Test III, herbicidal activity in wheat and barley; conditions: Table 8, 21 d; for pest or weed control at 35 g/ha: 35 g ai/ha; for pest or weed control at 70 g/ha: 70 g ai/ha; for GR50 PAPRH: dose for 50 percent growth reduction; for GR50 PAPRH / GR80 PAPRH: probit analysis; for GR80 PAPRH: dose for 80 percent growth reduction
Outline: (§1)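 Plants at the second to third true-leaf stage, grown in a greenhouse at about 18/17 °C with a 14 h photoperiod, were sprayed post-emergence at 187 L/ha with the high rate and ½× to 1/16× serial dilutions in an acetone/DMSO/crop-oil/surfactant carrier. Injury was rated visually at 21 d on a 0–100% scale, and GR20–GR90 were derived by probit analysis.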

[2] = system: VERPE: bird's-eye speedwell (veronica persica); assay: as above; conditions: for GR50 VERPE: dose for 50 percent growth reduction; for GR50 VERPE / GR80 VERPE: probit analysis; for GR80 VERPE: dose for 80 percent growth reduction; for pest or weed control at 35 g/ha: 35 g ai/ha; for pest or weed control at 70 g/ha: 70 g ai/ha
Outline: as §1

[3] = system: AVEFA: wild oats (Avena fatua); assay: Pre-emergent Test I herbicidal activity; conditions: pre-emergence, 336 h, 4 kg ai/ha, read-out: Visual Growth Reduction (%) 14 Days After Application, AVEFA
Protocol: (§2) Pre-emergent Test I Seeds of test species were planted into round plastic pots (5-inch diameter) containing sandy loam soil. After planting, all pots were sub-irrigated 16 h prior to compound application. Compounds were dissolved in a 97:3 v/v (volume/volume) mixture of acetone and dimethyl sulfoxide (DMSO) and diluted to the appropriate concentration in a final application solution containing water, acetone, isopropanol, DMSO and Agri-dex (crop oil concentrate) in a 59:23:15:1.0:1.5 v/v ratio and 0.02% w/v (weight/volume) of Triton X-155 to obtain the spray solution containing the highest application rate. Additional application rates were obtained by serial dilution of the high rate solution with the above application solution. Formulated compound (2.7 mL) was applied pipetted evenly over the soil surface followed by incorporation with water (15 mL). Following treatment, pots were returned to the greenhouse for the duration of the experiment. The greenhouse was programmed for an approximate 15 h photoperiod which was maintained at about 23-29° C. during the day and 22-28° C. during the night. Nutrients and water were added on a regular basis through surface irrigation and supplemental lighting was provided with overhead metal halide 1000-Watt lamps as necessary. Herbicidal effect ratings were obtained 14 days after treatment. All evaluations were made relative to appropriate controls on a scale of 0 to 100 where 0 represents no herbicidal effect and 100 represents plant death or lack of emergence from the soil.

[4] = system: ECHCG: barnyardgrass (Echinochloa crus-galli); assay: Pre-emergent Test I herbicidal activity; conditions: pre-emergence, 336 h, read-out: Visual Growth Reduction (%) 14 Days After Application, ECHCG; for pest or weed control at 4000 g/ha: 4 kg ai/ha
Protocol: as §2

[5] = system: HELAN: sunflower (Helianthus annuus); assay: Pre-emergent Test I herbicidal activity; conditions: pre-emergence, 336 h, read-out: Visual Growth Reduction (%) 14 Days After Application, HELAN; for pest or weed control at 4000 g/ha: 4 kg ai/ha
Protocol: as §2

[6] = system: IPOHE: ivyleaf morningglory (Ipomoea hederecea); assay: Pre-emergent Test I herbicidal activity; conditions: pre-emergence, 336 h, read-out: Visual Growth Reduction (%) 14 Days After Application, IPOHE; for pest or weed control at 4000 g/ha: 4 kg ai/ha
Protocol: as §2

[7] = system: SETFA: giant foxtail (Setaria faberi); assay: Pre-emergent Test I herbicidal activity; conditions: pre-emergence, 336 h, read-out: Visual Growth Reduction (%) 14 Days After Application, SETFA; for pest or weed control at 4000 g/ha: 4 kg ai/ha
Protocol: as §2

[8] = system: BROTE: downy brome (Bromus tectorum); assay: Post-emergent Test III, herbicidal activity in wheat and barley
Outline: as §1

[9] = Papaver rhoeas, post-emergence, 504 h, post-emergent, read-out: Visual Growth Reduction (%) 21 Days After Application PAPRH
[10] = Veronica persica, post-emergence, 504 h, Table 8, post-emergent, 21 d, read-out: Visual Growth Reduction (%) 21 Days After Application VERPE
[11] = Veronica persica, post-emergence, 504 h, 21 days after application, read-out: Visual Gorowth Reduction (%) 21 days After Application VERPE

| Compound | pest or weed control at 35 g/ha [1, 9] [%] | pest or weed control at 70 g/ha [1, 9] [%] | GR50 PAPRH [1] [g ai/ha] | GR80 PAPRH [1] [g ai/ha] | GR50 VERPE ([2]; Table 8, 21 d) [g ai/ha] | GR80 VERPE ([2]; Table 8, 21 d) [g ai/ha] | pest or weed control at 35 g/ha [2, 10] [%] | pest or weed control at 70 g/ha [2, 10] [%] | further results |
| --- | --- | --- | --- | --- | --- | --- | --- | --- | --- |
| Nc1cc(-c2cc(F)c(Br)cc2F)nc(C(=O)O)c1Cl [Compound 3] | 95 to 100 | 95 to 100 | 1 | 1 | 34 | 126 | 45 to 59 | 60 to 74 |  |
| COC(=O)c1nc(-c2ccc(I)c(F)c2)nc(N)c1OC [Compound 27, Methyl 6-amino-2-(3-fluoro-4-iodophenyl)-5-methoxypyrimidine-4-carboxylate] | 95 to 100 | 95 to 100 | 1 | 1 | 5 | 42 | 75 to 84 | 85 to 94 |  |
| COc1c(N)nc(-c2ccc(I)c(F)c2)nc1C(=O)O [Compound 37, 6-Amino-2-(3-fluoro-4-iodophenyl)-5-methoxypyrimidine-4-carboxylic acid] | 95 to 100 | 95 to 100 | 1 | 1 | 15 | 66 | 60 to 74 | 75 to 84 |  |
| Nc1c(Cl)c(C(=O)O)nc(-c2ccc(Br)c(F)c2)c1Cl [Compound 43, 4-Amino-6-(4-bromo-3-fluorophenyl)-3,5-dichloropicolinic acid] | 95 to 100 | 95 to 100 | 1 | 1 | 33 | >140 | 30 to 44 | 75 to 84 |  |
| Nc1c(F)c(-c2cc(F)c(I)cc2F)nc(C(=O)O)c1Cl [Compound 69] |  |  |  |  |  |  |  |  | pest or weed control at 35 g/ha [2, 11]: 85 to 94%; pest or weed control at 70 g/ha [2, 11]: 95 to 100%; GR50 VERPE ([2]; 21 days after application): 1 g ai/ha; GR80 VERPE ([2]; 21 days after application): 4 g ai/ha |
| COC(=O)c1nc(-c2ccc(I)c(F)c2)c(C)c(N)c1Cl [Compound 79, Methyl 4-amino-3-chloro-6-(3-fluoro-4-iodophenyl)-5-methylpicolinate] | 95 to 100 | 95 to 100 | 1 | 1 | 2 | 37 | 75 to 84 | 85 to 94 |  |
| C=Cc1c(C(=O)O)nc(-c2ccc(C(F)(F)F)c(F)c2)c(F)c1N [Compound 86] |  |  |  |  |  |  |  |  | pest or weed control at 35 g/ha [2, 11]: 85 to 94%; pest or weed control at 70 g/ha [2, 11]: 85 to 94%; GR50 VERPE ([2]; 21 days after application): 15 g ai/ha; GR80 VERPE ([2]; 21 days after application): 34 g ai/ha |
| COC(=O)c1nc(-c2ccc(Br)c(F)c2F)c(F)c(N)c1Cl [Compound 109, methyl 4-amino-6-(4-bromo-2,3-difluorophenyl)-3-chloro-5-fluoropicolinate] |  |  |  |  |  |  |  |  | pest or weed control at 4000 g/ha [3]: 85 to 94%; pest or weed control at 4000 g/ha [4]: 95 to 100%; pest or weed control at 4000 g/ha [5]: 75 to 84%; pest or weed control at 4000 g/ha [6]: 95 to 100%; pest or weed control at 4000 g/ha [7]: 95 to 100%; pest or weed control at 35 g/ha ([8]; Bromus tectorum, post-emergence, 504 h, 35 g ai/ha, read-out: Visual Growth Reduction (%) 21 Days After Application BROTE): 75 to 84%; pest or weed control at 70 g/ha ([8]; Bromus tectorum, post-emergence, 504 h, 70 g ai/ha, read-out: Visual Growth Reduction (%) 21 Days After Application BROTE): 85 to 94%; GR50 BROTE ([8]; probit analysis, dose for growth reduction of 50 percent, 21 days after application): 14 g ai/ha; GR80 BROTE ([8]; probit analysis, dose for growth reduction of 80 percent, 21 days after application): 41 g ai/ha |
| Nc1cc(-c2ccc(I)cc2F)nc(C(=O)O)c1Cl [Compound 124] | 95 to 100 | 95 to 100 | 1 | 1 | 20 | 39 | 75 to 84 | 85 to 94 |  |
| Nc1c(Cl)c(C(=O)O)nc(-c2ccc(I)c(F)c2)c1Cl [Compound 145, 4-Amino-3,5-dichloro-6-(3-fluoro-4-iodophenyl)picolinic acid] | 95 to 100 | 95 to 100 | 1 | 1 | 1 | 10 | 85 to 94 | 85 to 94 | pest or weed control at 140 g/ha ([1]; Papaver rhoeas, post-emergence, 504 h, 140 g ai/ha, post-emergent, read-out: Visual Growth Reduction (%) 21 Days After Application PAPRH): 95 to 100%; pest or weed control at 140 g/ha ([2]; Veronica persica, post-emergence, 504 h, Table 8, 140 g ai/ha, post-emergent, 21 d, read-out: Visual Growth Reduction (%) 21 Days After Application VERPE): 95 to 100% |
| COC(=O)c1nc(-c2ccc(Br)c(F)c2)nc(N)c1OC [Compound 171, Methyl 6-amino-2-(4-bromo-3-fluorophenyl)-5-methoxypyrimidine-4-carboxylate] | 95 to 100 | 95 to 100 | 1 | 1 | 4 | 27 | 85 to 94 | 85 to 94 |  |
| COC(=O)c1nc(-c2cccc(F)c2F)c(F)c(N)c1Cl [Compound 199] |  |  |  |  |  |  |  |  | pest or weed control at 4000 g/ha [4]: 0 to 29%; pest or weed control at 4000 g/ha [5]: 60 to 74%; pest or weed control at 4000 g/ha [6]: 75 to 84%; pest or weed control at 4000 g/ha [7]: 45 to 59% |
| COC(=O)c1nc(-c2ccccc2F)c(F)c(N)c1Cl [Compound 206] |  |  |  |  |  |  |  |  | pest or weed control at 4040 g/ha ([4]; 4.04 kg ai/ha): 0 to 29%; pest or weed control at 4040 g/ha ([5]; 4.04 kg ai/ha): 95 to 100%; pest or weed control at 4040 g/ha ([6]; 4.04 kg ai/ha): 95 to 100%; pest or weed control at 4040 g/ha ([7]; 4.04 kg ai/ha): 75 to 84% |
